In patent US20210198277A1, “AMINE-SUBSTITUTED ARYL OR HETEROARYL COMPOUNDS” (Epizyme, Inc., priority 2016, published 2021):

Target: T1, EHMT2 (Homo sapiens, UniProt Q96KQ7)
T1 construct: host or cells: MDA-MB-231
T1 sequence (Q96KQ7 1-1210): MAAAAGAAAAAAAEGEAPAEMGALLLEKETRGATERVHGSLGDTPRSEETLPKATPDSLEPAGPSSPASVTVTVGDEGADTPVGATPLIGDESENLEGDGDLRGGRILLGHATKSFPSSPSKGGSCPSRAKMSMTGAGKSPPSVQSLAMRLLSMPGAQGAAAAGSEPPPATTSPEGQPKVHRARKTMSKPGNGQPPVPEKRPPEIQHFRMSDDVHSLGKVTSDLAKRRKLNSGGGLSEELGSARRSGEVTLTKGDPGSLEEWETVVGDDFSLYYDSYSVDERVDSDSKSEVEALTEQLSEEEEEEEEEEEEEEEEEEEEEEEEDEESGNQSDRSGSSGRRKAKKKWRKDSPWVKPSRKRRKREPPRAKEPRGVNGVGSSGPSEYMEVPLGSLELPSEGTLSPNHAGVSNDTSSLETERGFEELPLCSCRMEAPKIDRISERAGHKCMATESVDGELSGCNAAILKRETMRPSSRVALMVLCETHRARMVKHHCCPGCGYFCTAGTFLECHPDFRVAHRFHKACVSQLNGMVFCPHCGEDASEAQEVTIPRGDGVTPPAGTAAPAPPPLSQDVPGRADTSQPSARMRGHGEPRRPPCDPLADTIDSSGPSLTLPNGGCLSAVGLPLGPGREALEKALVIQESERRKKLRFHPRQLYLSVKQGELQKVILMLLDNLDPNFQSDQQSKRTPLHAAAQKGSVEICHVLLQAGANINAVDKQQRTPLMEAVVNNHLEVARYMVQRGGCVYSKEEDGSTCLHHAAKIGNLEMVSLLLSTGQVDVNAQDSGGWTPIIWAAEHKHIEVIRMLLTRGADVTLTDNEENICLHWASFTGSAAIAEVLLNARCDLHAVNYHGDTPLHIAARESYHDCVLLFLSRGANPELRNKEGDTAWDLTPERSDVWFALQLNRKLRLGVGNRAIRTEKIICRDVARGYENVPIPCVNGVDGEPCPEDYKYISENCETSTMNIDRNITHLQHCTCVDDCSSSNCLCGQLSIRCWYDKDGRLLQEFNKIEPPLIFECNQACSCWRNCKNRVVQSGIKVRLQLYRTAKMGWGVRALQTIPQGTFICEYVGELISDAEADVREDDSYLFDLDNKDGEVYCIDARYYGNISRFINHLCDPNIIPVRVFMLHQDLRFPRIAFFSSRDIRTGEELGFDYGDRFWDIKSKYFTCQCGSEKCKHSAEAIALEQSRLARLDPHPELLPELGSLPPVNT
Experiment: MDA-MB-231 H3K9me2 in-cell Western assay (EHMT2 ICW)
Format: cell-based
Conditions: Table VI; read-out: EHMT2 ICW IC50
In short: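 Infrared read-out at 800 and 700 nm (H3K9me2 antibody vs DRAQ5 DNA stain) of fixed MDA-MB-231 cells after 48 h compound treatment at 37 °C. Well ratios were converted to percent inhibition, and IC50 was obtained by variable-slope nonlinear regression on triplicates.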

IC50	Compound
100 to 1000 nM	CNc1cc(C)nc(Nc2ccc(OC)c(OCC(O)CN3CCCC3)c2)n1 (stereo in doubt) [Compound 906, (2S)-1-(2-methoxy-5-[[4-methyl-6-(methylamino)pyrimidin-2-yl]amino]phenoxy)-3-(pyrrolidin-1-yl)propan-2-ol]
> 10000 nM	COc1cnc(Nc2cccc3[nH]nnc23)cc1OCCCN1CCCC1 [Compound 619]
> 10000 nM	CCN1CC(COc2cc(Nc3cccn4cnnc34)ncc2OC)C1 [Compound 620]
> 10000 nM	CNc1cc(C)nc(Nc2c[nH]c(=O)c(OCCCN3CCCC3)c2)n1 [Compound 621]
> 10000 nM	CNc1cc(C)nc(Nc2cc(OCCCN3CCCC3)c3nncn3c2)n1 [Compound 622]
1000 to 10000 nM	CNc1cc(C)nc(Nc2cc(OCCCN3CCCC3)c3ncnn3c2)n1 [Compound 623]
1000 to 10000 nM	CNc1cc(C)nc(Nc2cc(OCCCN3CCCC3)c3[nH]nnc3c2)n1 [Compound 624]
100 to 1000 nM	COc1cc2c(C3CCN(C)CC3)cc(N3CCCC3)nc2cc1OCCCN1CCCC1 [Compound 625]
100 to 1000 nM	COc1cc2c(C3CCN([C@H]4CCOC4)CC3)cc(C)nc2cc1OCCCN1CCCC1 [Compound 864]
100 to 1000 nM	CCNc1cc(C2CCOCC2)c2cc(OC)c(OCCCN3CCCC3)cc2n1 [Compound 865]
< 100 nM	CNc1cc(C2CCN([C@@H]3CCOC3)CC2)c2cc(OC)c(OCCCN3CCCC3)cc2n1 [Compound 866]
< 100 nM	CNc1cc(C2CCN([C@H]3CCOC3)CC2)c2cc(OC)c(OCCCN3CCCC3)cc2n1 [Compound 867]
> 10000 nM	COc1ccc(Nc2nc(C)cc(C3CCOCC3)n2)cc1OCCCN1CCCC1 [Compound 870]
> 10000 nM	CNc1cc(C)nc(Nc2ccc(OC)c(C(=O)NCc3ccccc3)c2)n1 [Compound 871]
> 10000 nM	CNc1cc(C)nc(Nc2ccc(OC)c(C(=O)NC3CCN(C)CC3)c2)n1 [Compound 873]
> 10000 nM	CNc1cc(C)nc(Nc2ccc(CNC(=O)c3ccccc3)c(OC)c2)n1 [Compound 876]
> 10000 nM	CNc1cc(C)nc(Nc2ccc(C(=O)NCc3ccccc3)c(OC)c2)n1 [Compound 877]
100 to 1000 nM	CNc1cc(C)nc(Nc2cnc(OC)c(OC[C@@H](O)CN3CCCC3)c2)n1 [Compound 881]
1000 to 10000 nM	CNc1cc(C)nc(Nc2cnc(OC)c(OC[C@H](O)CN3CCCC3)c2)n1 [Compound 882]
> 10000 nM	COc1ncc(Nc2nc(C)cc(NCC3COC3)n2)cc1OC[C@@H](O)CN1CCCC1 [Compound 883]
> 10000 nM	COc1ncc(Nc2nc(C)cc(NCC3COC3)n2)cc1OC[C@H](O)CN1CCCC1 [Compound 884]
> 10000 nM	CNc1cc(C)nc(Nc2cc(OC[C@@H](O)CN3CCCC3)c(OC)cn2)n1 [Compound 885]
> 10000 nM	CNc1cc(C)nc(Nc2cc(OC[C@H](O)CN3CCCC3)c(OC)cn2)n1 [Compound 886]
1000 to 10000 nM	CNC(=O)CCNc1cc(C)nc(Nc2cnc(OC)c(OCCCN3CCCC3)c2)n1 [Compound 887]

IC50	Compound
> 10000 nM	CNC(=O)N1CC(CNc2cc(C)nc(Nc3cnc(OC)c(OCCCN4CCCC4)c3)n2)C1 [Compound 888]
> 10000 nM	CNc1cc(C)nc(Nc2ccc(OC)c(OCCCc3nc(Cl)c[nH]3)c2)n1 [Compound 890]
> 10000 nM	CNc1cc(C)nc(Nc2ccc(OC)c(OCCCc3nc(Cl)cn3C)c2)n1 [Compound 891]
1000 to 10000 nM	CNS(=O)(=O)CCNc1cc(C)nc(Nc2ccc(OC)c(OCCCN3CCCC3)c2)n1 [Compound 892]
100 to 1000 nM	COc1ccc(Nc2nc(C)cc(NCCS(=O)(=O)N(C)C)n2)cc1OCCCN1CCCC1 [Compound 893]
> 10000 nM	COc1cnc(Nc2cc(NCC3COC3)cnn2)cc1OCCCN1CCCC1 [Compound 894]
> 10000 nM	COc1cc2cc(C#N)c(C)nc2cc1OCCCN1CCCC1 [Compound 895]
> 10000 nM	COc1cc2cc(F)c(C)nc2cc1OCCCN1CCCC1 [Compound 896]
> 10000 nM	CNc1nc2cc(OCCCN3CCCC3)c(OC)cc2cc1F [Compound 897]
100 to 1000 nM	CNC(=O)C1CCN(c2cc3nc(NC)cc(C)c3cc2OC)C1 (stereo not shown) [Compound 900]
100 to 1000 nM	CNc1cc(C2CCOCC2)c2cc(OC)c(OCCCN3CC(O)C3)cc2n1 [Compound 902]
1000 to 10000 nM	CNc1nc2cc(OCCCN3CCCC3)c(OC)cc2cc1Cl [Compound 903]
> 10000 nM	CNc1cc(C)nc(Nc2ccc(OC)c(C#CCN3CCOCC3)c2)n1 [Compound 904]
100 to 1000 nM	CNc1cc(C)nc(Nc2ccc(OC)c(OC[C@@H](O)CN3CCCC3)c2)n1 [Compound 905]
1000 to 10000 nM	CNc1ccnc(Nc2ccc(OC)c(OC[C@@H](O)CN3CCC3)c2)n1 [Compound 907]
100 to 1000 nM	CNc1ccnc(Nc2ccc(OC)c(OC[C@H](O)CN3CCC3)c2)n1 [Compound 908]
100 to 1000 nM	CNc1ccnc(Nc2cnc(OC)c(OC[C@@H]3CCN(C)C3)c2)n1 [Compound 912]
100 to 1000 nM	CNc1ccnc(Nc2cnc(OC)c(OCCCN3CCC3)c2)n1 [Compound 914]
1000 to 10000 nM	CNCCCOc1cc(Nc2nccc(NC)n2)ccc1OC [Compound 916]
1000 to 10000 nM	CNCCCOc1cc(Nc2nccc(NC)n2)cnc1OC [Compound 917]
1000 to 10000 nM	CNC[C@@H](O)COc1cc(Nc2nccc(NC)n2)cnc1OC [Compound 918]
> 10000 nM	CNc1ccnc(Nc2ccc(OC)c(OC[C@@H](CN3CCCC3)OC)c2)n1 [Compound 919]
100 to 1000 nM	CNc1ccnc(Nc2ccc(OC)c(OC[C@H](CN3CCCC3)OC)c2)n1 [Compound 920]
> 10000 nM	CNC[C@H](COc1cc(Nc2nccc(NC)n2)ccc1OC)OC [Compound 921]

IC50	Compound
> 10000 nM	CNC[C@@H](COc1cc(Nc2nccc(NC)n2)ccc1OC)OC [Compound 922]
100 to 1000 nM	CCN1CC[C@@H](COc2cc(Nc3nccc(NC)n3)ccc2OC)C1 [Compound 927]
< 100 nM	CNc1ccnc(Nc2ccc(OC)c(OC[C@@H]3CCN(C4CC4)C3)c2)n1 [Compound 928]
> 10000 nM	CNc1ccnc(Nc2ccc(OC)c(OC[C@H]3CN(C)CCO3)c2)n1 [Compound 931]
> 10000 nM	CCN1CCO[C@@H](COc2cc(Nc3nccc(NC)n3)ccc2OC)C1 [Compound 932]
> 10000 nM	CNc1ccnc(Nc2ccc(OC)c(OC[C@H]3CNCCO3)c2)n1 [Compound 933]
> 10000 nM	CNc1ccnc(Nc2ccc(OC)c(OC[C@@H]3CN(C)CCO3)c2)n1 [Compound 936]
> 10000 nM	CCN1CCO[C@H](COc2cc(Nc3nccc(NC)n3)ccc2OC)C1 [Compound 937]
> 10000 nM	CNc1ccnc(Nc2ccc(OC)c(OC[C@@H]3CNCCO3)c2)n1 [Compound 938]
1000 to 10000 nM	CNc1ccnc(Nc2ccc(OC)c(OC[C@@H](C)CN3CCC3)c2)n1 [Compound 943]
100 to 1000 nM	CNc1ccnc(Nc2ccc(OC)c(OC[C@H](C)CN3CCC3)c2)n1 [Compound 945]
1000 to 10000 nM	CCN1CC[C@@H](COc2cc(Nc3nc(C)cc4[nH]ncc34)ncc2OC)C1 [Compound 947]
100 to 1000 nM	CNc1cc(C)nc(Nc2cnc(OC)c(OCCCN3CCC3)c2)n1 [Compound 949]
1000 to 10000 nM	COc1cc2c(C3CCN(C)CC3)nc(N3CCCC3)nc2cc1OCCCN1CC(O)C1 [Compound 950]
1000 to 10000 nM	CCN1CC(COc2cc3nc(NC)nc(C4CCN(C)CC4)c3cc2OC)C1 [Compound 951]
> 10000 nM	CNc1nc(C2=CC(C)(C)NC(C)(C)C2)c2cc(OC)c(OCCCN3CCCC3)cc2n1 [Compound 961]
1000 to 10000 nM	CNc1cc(C)nc(Nc2ccc(OC)c(OC[C@H](O)CNC3CCC3)c2)n1 [Compound 962]
100 to 1000 nM	CNc1cc(C)nc(Nc2cnc(OC)c(OC[C@H](O)CN3CCC3)c2)n1 [Compound 963]
1000 to 10000 nM	CNCCNCc1cc(Nc2nc(C)cc(NC)n2)ccc1OC [Compound 964]
< 100 nM	CNc1cc(C)nc(Nc2ccc(OC)c(CNCCN3CCC3)c2)n1 [Compound 965]
100 to 1000 nM	CNc1ccnc(Nc2cnc(OC)c(OC[C@@H]3CCN(C4CCC4)C3)n2)n1 [Compound 974]
100 to 1000 nM	CNc1cc(C)nc(Nc2ccc(OC)c(OC[C@H](O)CN3CC(C)C3)c2)n1 [Compound 985]
